Measured values reported in patent publication US20060127967A1, “In vitro test for studying compound predicting pharmacologic and/or harmacokinetic and/or pharmacodynamic parameters of a compound” (priority 2002, published 2006).
Where a name gives a salt, the structure may show the parent alone.

Tests used:
Tetrahymena thermophila = Tetrahymena thermophila cell area, computerized morphometric/image analysis bioassay; assay type: cell-based; details: 6 hours exposure, various concentrations, at least 100 cells per sample
Procedure: Tetrahymena thermophila was grown axenically at 34 ?C in proteosepeptone yeast salts (PPYS) complex medium. Test cultures were prepared by inoculating the protozoa from a stock culture into PPYS to produce initial culture of ˜5000 cell/ml. The cell cultures were then grown for 24 hours at 34 ?C. In the beginning of the experiment the culture was transferred into 3 ml test tubes and exposed to the various concentrations of the tested material. Samples were withdrawn 6 hours following the exposure to the tested material. The samples fixed with formaldehyde solution were placed on the hemocytometer, observed under microscope and the area of tetrahymena was evaluated by computerized morphometric system/image analysis program. For each sample at least 100 cells were evaluated.

[1] = Permeation through Integra bi-layer membrane and human skin in Valia-Chien diffusion cells; assay type: in vitro ADME; details: aqueous solution pH 7.2, receiver Tris buffer pH 7.2, 8 hours, permeation area 0.64 cm^2, HCl
Procedure: Permeation studies with aqueous solution of Propranolol HCl (pH 7.2) through Integra and human skin were carried out in Valia-Chien diffusion cells. The effective permeation area was 0.64 cm^2. The receiver compartment contained Tris buffer (pH 7.2) and the experiment lasted for 8 hours. The samples were withdrawn at 0, 1, 2, 4, 6 and 8 hours and the quantity of propranolol HCl permeated through the membrane was analyzed by validated HPLC method.

SMILES	change in Tetrahymena thermophila cell area with increasing drug concentration in the medium (Tetrahymena thermophila)	permeation constant (Kp) through Integra as compared to human skin [1]	permeation constant (Kp) through Integra as compared to human skin ([1]; listed as propranolol)
C=CCc1ccccc1OCC(O)CNC(C)C (stereo not shown) [Alprenolol hydrochloride]	decrease in the cell area	–	–
CC(C)NCC(O)COc1cccc2ccccc12 (stereo not shown) [Propranolol HCl]	–	close similarity	similar
O=C([O-])c1ccccc1O.[Na+] [sodium salicylate]	decrease in cell area	–	–
